From PMC8572102 (Pharmacogenomics and Personalized Medicine, 2021)
Where two headings read alike, the source gives them in different places.

Columns and labels:
[1] = tested on: CYP2C19 and CYP3A4; details: major metabolite of voriconazole, in vitro studies; cited from earlier work
[2] = type: in vivo, human (Chinese patients)

| Frequency of supra-therapeutic levels (> 5µg/mL) ([2]; CYP2C19 intermediate metabolizer patients) | Frequency of supra-therapeutic levels (> 5µg/mL) ([2]; CYP2C19 normal metabolizer patients) | Frequency of supra-therapeutic levels (> 5µg/mL) ([2]; CYP2C19 poor metabolizer patients) | Median trough concentration of voriconazole in sub-group analysis ([2]; PM/PPIs users group, excluding cases administered omeprazole or esomeprazole) | concentration at 12 h ([2]; human, plasma, 200 mg, Voriconazole trough concentration, median (IQR), all patients, 250 samples from 114 patients, voriconazole 200mg 12hrly, steady state) | Structure (SMILES) | Share of all metabolites [1] |
| --- | --- | --- | --- | --- | --- | --- |
| – | – | – | – | – | C[C@@H](c1nc[n+]([O-])cc1F)[C@](O)(Cn1cncn1)c1ccc(F)cc1F [voriconazole N-oxide] | about 74% |
| 13.5% | 15.4% | 47.8% | below supra-therapeutic levels | 2100 ng/mL | C[C@@H](c1ncncc1F)[C@](O)(Cn1cncn1)c1ccc(F)cc1F [voriconazole] | – |
